According to US7482344B2, “Tricyclic steroid hormone nuclear receptor modulators” (Eli Lilly and Company, priority 2003, dated 2009):

These molecules were tested against T1, human GR (glucocorticoid receptor) (Homo sapiens, UniProt P04150) (assay: Alternative Binding Assay Protocol (Method 2), 293-GR lysate, 3H-dexamethasone competition). Settings: 0.3 nM 3H-dexamethasone.
T1 construct: expressed in transfected cells; host or cells: 293 cells
T1 sequence (P04150 1-777): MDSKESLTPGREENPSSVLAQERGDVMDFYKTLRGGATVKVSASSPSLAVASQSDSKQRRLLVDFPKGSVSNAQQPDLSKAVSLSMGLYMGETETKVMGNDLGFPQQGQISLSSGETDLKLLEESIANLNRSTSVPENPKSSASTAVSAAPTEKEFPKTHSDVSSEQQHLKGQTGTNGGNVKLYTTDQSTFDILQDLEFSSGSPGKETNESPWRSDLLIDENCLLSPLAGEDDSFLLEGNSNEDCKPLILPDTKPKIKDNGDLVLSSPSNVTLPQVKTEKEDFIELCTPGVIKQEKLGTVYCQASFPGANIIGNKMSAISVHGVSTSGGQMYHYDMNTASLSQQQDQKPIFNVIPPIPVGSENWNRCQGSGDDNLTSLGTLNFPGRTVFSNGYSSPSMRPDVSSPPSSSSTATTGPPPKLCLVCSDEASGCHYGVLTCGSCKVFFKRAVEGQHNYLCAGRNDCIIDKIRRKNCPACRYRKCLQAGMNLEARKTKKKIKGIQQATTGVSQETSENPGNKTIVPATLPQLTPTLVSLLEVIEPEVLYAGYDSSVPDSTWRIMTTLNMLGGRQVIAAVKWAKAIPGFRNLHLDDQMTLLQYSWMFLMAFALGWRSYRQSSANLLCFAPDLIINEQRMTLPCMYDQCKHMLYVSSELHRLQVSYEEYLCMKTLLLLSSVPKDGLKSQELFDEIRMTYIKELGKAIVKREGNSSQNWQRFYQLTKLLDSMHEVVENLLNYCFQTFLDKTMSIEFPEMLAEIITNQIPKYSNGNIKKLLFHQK
Method: Alternative Binding Assay Protocol for MR, GR, AR, and PR (Method 2):
Cell lysates from 293 cells overexpressing human GR (glucocorticoid receptor), AR (androgen receptor), MR (mineralocorticoid receptor) or PR (progesterone receptor) are used for competition binding assays to determine Ki values for test compounds. Briefly, competition binding assays are run in a buffer containing 20 mM Hepes, pH 7.6, 0.2 mM EDTA, 75 mM NaCl, 1.5 mM MgCl2, 20% glycerol, 20 mM sodium molybdate, 0.2 mM DTT, 20 ug/ml aprotinin and 20 ug/ml leupeptin, using either 0.3 nM ^3H-dexamethasone for GR binding, 0.36 nM ^3H-methyltrienolone for AR binding, 0.25 nM ^3H-aldosterone for MR binding, or 0.29 nM ^3H-methyltrienolone for PR binding, and either 20 ug 293-GR lysate, 22 ug 293-AR lysate, 20 ug 293-MR lysate or 40 ug 293-PR lysate per well. Competing compounds are added various concentrations in half-log increments. Non-specific binding is determined in the presence of 500 nM dexamethasone for GR binding, 500 nM aldosterone for MR binding, or 500 nM methyltrienolone for AR and PR binding. The binding reaction (140 μl) is incubated for overnight at 4° C. then 70 μl of cold charcoal-dextran buffer (containing per 50 ml of assay buffer, 0.75 g of charcoal and 0.25 g of dextran) is added to each reaction. Plates are mixed 8 minutes on an orbital shaker at 4° C. Plates are then centrifuged at 3,000 rpm at 4° C. for 10 minutes. An aliquot of 120 μl of the mix is transferred to another 96-well plate and 175 μl of Wallac Optiphase “Hisafe 3” scintillation fluid is added to each well. Plates are sealed and shaken vigorously on an orbital shaker. After an incubation of 2 hrs, plates are read in a Wallac Microbeta counter. The data is used to calculate an IC50 and % Inhibition at 10 μM. The Kd for ^3H-dexamethasone for GR binding, ^3H-methyltrienolone for AR binding, ^3H-aldosterone for MR binding, or ^3H-methyltrienolone for PR binding, is determined by saturation binding. The IC50 values for compounds are converted to Ki using Cheng-Prusoff equation and the Kd determined by saturation binding assay.

Ki | Structure (SMILES)
< 500 nM | O=c1[nH]c2cc(C=C3c4ccccc4Sc4ccccc43)ccc2o1 [Example 11]
< 10000 nM | CN1CCN(CCn2c(=O)[nH]c3cc(C=C4c5ccccc5Sc5ccccc54)ccc32)CC1 [Example 14]
< 10000 nM | O=c1[nH]c2ccc(C=C3c4ccccc4Sc4ccccc43)cc2[nH]1 [Example 10]
< 500 nM | O=c1[nH]c2cc(C=C3c4ccccc4Sc4ccccc43)ccc2s1 [Example 12]
< 1000 nM | O=c1[nH]c2cc(C=C3c4ccccc4Sc4ccccc43)ccc2n1CCN1CCOCC1 [Example 13]

More lines, now with the values behind:

Structure (SMILES) | Ki
CC(=C1c2ccccc2Sc2ccccc21)c1cccc(NS(C)(=O)=O)c1 [Example 4, 9-[1-(3-methylsulfonoylaminophenyl)ethylene] thioxanthine] | < 500 nM
O=c1[nH]c2ccc(C=C3c4ccc(F)cc4Sc4cc(F)ccc43)cc2[nH]1 [Example 5, 5-(3,6-Difluoro-thioxanthen-9-ylidenemethyl)-1,3-dihydro-benzoimidazol-2-one] | < 1000 nM
Oc1ccccc1C=C1c2ccccc2Sc2ccccc21 [Example 15] | < 500 nM
CS(=O)(=O)Nc1cccc(C=C2c3ccccc3Sc3ccccc32)c1 [Example 8] | < 500 nM
Nc1cccc(C=C2c3ccccc3Sc3ccccc32)c1 [Example 9] | < 1000 nM
CC(=C1c2ccccc2Sc2ccccc21)c1cccc(N)c1 [Example 6] | < 500 nM
